Source: EP3698776A1, “TAMPER-RESISTANT DOSAGE FORM WITH IMMEDIATE RELEASE AND RESISTANCE AGAINST SOLVENT EXTRACTION” (Grünenthal GmbH, priority 2019, dated 2020)

How the values were obtained:
[1] = test system: non-dependent recreational opioid users; experiment: Human abuse liability study, intranasal: pharmacodynamics (VAS Drug Liking, pupillometry); format: in vivo; conditions: 30 mg oxycodone HCl, Completer Set
Protocol: The formulation according to Inventive Example 1 was tested in a human abuse liability study and compared to a commercial product and to placebo (placebo API and placebo TRF formulation).
(§1) A single-site, randomized, double-blind, double-dummy, active-comparator, placebo-controlled, 3-way crossover trial in adult non-dependent recreational opioid users was conducted to compare the intranasal abuse potential of the tablet formulation according to Inventive Example 1 and standard formulations of oxycodone.
(§2) The primary objective of the study was to compare the intranasal abuse potential of a manipulated formulation according to Inventive Example 1 and oxycodone active pharmaceutical ingredient (API) powder (representing manipulated oxycodone IR standard formulation). Primary measure: Peak effect (Emax) for Drug Liking "at this moment" on visual analog scale (VAS). The secondary objectives were to compare the pharmacokinetics (PK), further pharmacodynamic (PD) parameters, and assess safety and tolerability.
The trial design is illustrated in Figure 3 (Single-site, randomized, double-blind, double-dummy, active-comparator, placebo-controlled, 3-way crossover trial in male and female non-dependent recreational opioid users with recent intranasal use experience).
Subjects received single treatments of Test, Comparator, and Placebo in a randomized, double-blind, double-dummy, 3-way crossover. […]

[2] = Human abuse liability study, intranasal: pharmacokinetics; format: in vivo; conditions: inhaled or intranasal, intranasal (insufflated), plasma, PK Set, read-out: median tmax
Protocol: as §1, §2
Subjects received single treatments of Test, Comparator, and Placebo in a randomized, double-blind, double-dummy, 3-way crossover. Each single treatment consisted of two investigational medicinal products (IMPs), to be insufflated (snorted) in quick succession in fixed sequence:
Pharmacokinetics results are presented in Figure 7 relative to the insufflated amount of oxycodone, mean dose-normalized plasma-concentration-time profiles of Oxycodone - PK Set: […]

Compound: COc1ccc2c3c1O[C@H]1C(=O)CC[C@@]4(O)[C@@H](C2)N(C)CC[C@]314.Cl [Comparator (C), oxycodone HCl]
- Peak effect (Emax) of Drug Liking "at this moment", Least Square Mean [1]: 75.0
- Tmax [2]: 1.75 h
